# According to US20250333745A1, “METHODS AND COMPOSITIONS FOR TREATMENT OF POLYCYSTIC KIDNEY DISEASE” (Regulus Therapeutics Inc., priority 2016, published 2025):
# Legend:
# [1] = In vivo study of research tool compound (proinflammatory effect)
# Experimental: Further, the research tool compound was not sufficiently efficacious for development as a pharmaceutical agent for the treatment of PKD. Accordingly, a screen was performed to identify inhibitors of one or more miR-17 family members that are sufficiently efficacious, convenient to administer, and safe for administration to subjects with PKD. An additional criterion was a sufficiently high kidney-to-liver delivery ratio, to enhance the proportion of anti-miR-17 compound that is delivered to the target organ.
# [2] = In vitro metabolic stability in mouse liver lysate; type: in vitro ADME; settings: 24-hour incubation of RG4326
# Experimental: Metabolic stability was evaluated by incubating each anti-miR-17 compound in a mouse liver lysate. After 24 hours, the percentage of intact compound remaining is calculated. Compounds that are not stable following a 24-hour incubation are potentially not stable in vivo.
# (§1) Due to their reduced capacity for serum protein binding, which is a property that drives oligonucleotide distribution in the body, short oligonucleotides are not necessarily expected to have pharmacokinetic properties that make them suitable for use as drugs. RG4326 was incubated in mouse, monkey or human liver homogenate. The identity and concentration of RG4326 and metabolites was determined after a 24-hour incubation. RG4326 and metabolites were extracted using liquid-liquid extraction (LLE) and/or solid-phase extraction (SPE), which were then analyzed for identity and concentration using ion-pairing-reversed-phase high performance liquid chromatography coupled with time-of-flight mass spectrometry (IP—RP-HPLC-TOF).
# Viscosity = type: physicochemical; settings: approximately 150 mg/mL in water at 20° C.
# Experimental: RG4326 has the following sequence and chemical modification pattern: ASGSCMAFCFUFUMUSGS where nucleosides followed by subscript “M” are 2′-O-methyl nucleosides, nucleosides followed by subscript “F” are 2′-fluoro nucleosides, nucleosides followed by subscript “S” are S-cEt nucleosides, each cytosine is a non-methylated cytosine and all linkages are phosphorothioate linkages. […] Additionally, the viscosity of RG4326 was determined to be 6 cP at a concentration of approximately 150 mg/mL (in water at 20° C.), thus RG4326 in solution is suitable for administration by subcutaneous injection.
# [3] = Metabolic stability in liver homogenate, summary over species; type: in vitro ADME; settings: mouse, monkey or human liver homogenate
# Experimental: as §1
# [4] = Biochemical fluorescent binding assay (FBA); settings: fold change relative to control-treated samples
# Experimental: In in vitro assays, the potential for toxicity was assessed using a biochemical fluorescent binding assay (FBA) and a liver or kidney slice assay. The FBA is performed by incubating a fluorescent dye with each compound, and immediately measuring fluorescence. Highly fluorescent compounds have the potential to produce toxicity in vivo. The liver or kidney slice assay is performed by incubating a slice of tissue from a core liver sample isolated from rat. Following a 24-hour incubation, RNA is extracted from the tissue slice, and the expression levels of 18 pro-inflammatory genes are measured. An induction in pro-inflammatory gene expression indicates a potential for pro-inflammatory effects in vivo.
# The potential for toxicity was assessed using a biochemical fluorescent binding assay (FBA). The FBA is performed by incubating a fluorescent dye with each compound, and immediately measuring fluorescence. Results are expressed as fold change (Linear FC) relative to control-treated samples. Highly fluorescent compounds have the potential to produce toxicity in vivo.
# [5] = Tissue accumulation in kidney and liver (kidney-to-liver ratio); type: in vivo, mouse; settings: single dose 30 mg/kg, seven days
# Experimental: Pharmacokinetic properties and tissue distribution of select compounds were assessed in wild type C57BL6 mice and JCK mice (an experimental model of PKD). Compound was administered to wild type mouse at a dose of 0.3, 3, or 30 mg/kg, or to JCK mice at a dose of 3, 30, or 100 mg/kg. After seven days, mice were sacrificed. Kidney and liver tissues were collected. Concentration of anti-miR-17 compound was measured in liver and kidney. Compounds that accumulate to a greater level in kidney, relative to liver (i.e., have a higher kidney-to-liver ratio) were preferred.
# The miPSA was used to assess the potency of each compound, measured by the displacement score, in wild type and JCK mice. Tissue accumulation of anti-miR-17 compound was measured by extraction of compound using liquid-liquid extraction (LLE) and/or solid-phase extraction (SPE), followed by analysis of the identity and concentration of compound using ion-pairing-reversed-phase high performance liquid chromatography coupled with time-of-flight mass spectrometry (IP—RP-HPLC-TOF).
# Wild type mice were administered a single dose of 3 mg/kg for the miPSA analysis, and a single dose of 30 mg/kg for the tissue accumulation analysis. JCK mice were administered a single dose of 30 mg/kg for both the miPSA and tissue accumulation analyses. Kidney tissue was collected seven days following the administration of anti-miR-17 compound. […] A higher kidney-to-liver ratio is generally preferred for a disease where the primary site of action is the kidney.
# IFIT = assay: In vivo acute assay in Sv129 mice; design: species or system mouse; settings: single s.c. 300 mg/kg, four days, relative to PBS
# Experimental: Additional in vivo toxicology assessments were performed by administering to normal mice (Sv129 mice) a single subcutaneous injection of 300 mg/kg of anti-miR-17 compound. After four days, mice were sacrificed, blood was collected for serum chemistry analysis, liver and spleen were weighed, and RNA was isolated from kidney and liver tissues. The expression level of a pro-inflammatory gene, interferon-induced protein with tetratricopeptide repeats (IFIT), was measured.
# An in vivo assay was performed in normal, Sv129 mice. A single, subcutaneous dose of 300 mg/kg of RG4326 was administered. Included as control treatments were PBS, and two anti-miRs not related to miR-17, one known to be pro-inflammatory (positive control) and one that is not pro-inflammatory (negative control). Four days later, mice were sacrificed. Kidney and liver tissue was isolated for RNA extraction. The level of a gene known to be induced during an inflammatory response, IFIT, was measured and normalized to mouse GAPDH. A log 2 transformation of the fold change (Log2-FC) relative to PBS treatment was performed.
# miR-106b = miR-106b luciferase reporter assay in HeLa cells; type: cell-based; settings: anti-miR-17 at 100 nm
# Experimental: Additional in vitro assays were conducted to further explore the potency of RG4326. A luciferase reporter assay was used to test the ability of RG4326 to inhibit the miR-17 family members miR-17, miR-20a, miR-93, and miR-106b. A luciferase reporter plasmid for each of miR-20a, miR-93, and miR-106b was constructed, with a fully complementary microRNA binding site in the 3′-UTR of the luciferase gene. HeLa cells were transfected with the microRNA mimic and its cognate luciferase reporter, followed by transfection with anti-miR-17 at a dose of 100 nm. […] As RG4326 is 100% complementary to the other miR-17 family members not tested, miR-20b and […], it is expected to inhibit these microRNAs as well.
compound,measurement,setting,value
"5′-CTGCACTGTAAGCACTTTG-3′ (all phosphorothioate, sugars by position and methylation of C not given here; DNA, 2'-MOE and S-cEt sugars) [Tool anti-miR-17, reference compound]",proinflammatory effect (in words),[1],slightly proinflammatory
"COC1C(OP(=O)(S)OC[C@H]2O[C@@H](n3cnc4c(N)ncnc43)C(F)C2OP(=O)(S)OC[C@H]2O[C@@H](n3ccc(N)nc3=O)C(F)C2OP(=O)(S)OC[C@H]2O[C@@H](n3ccc(=O)[nH]c3=O)C(F)C2OP(=O)(S)OC[C@H]2O[C@@H](n3ccc(=O)[nH]c3=O)C(OC)C2OP(=O)(S)OC[C@]23O[C@@H](n4ccc(=O)[nH]c4=O)C(O[C@H]2C)C3OP(=O)(S)OC[C@]23O[C@@H](n4cnc5c(=O)[nH]c(N)nc54)C(O[C@H]2C)C3O)[C@@H](COP(=O)(S)OC2C3O[C@@H](C)[C@]2(COP(=O)(S)OC2C4O[C@@H](C)[C@]2(CO)O[C@H]4n2cnc4c(N)ncnc42)O[C@H]3n2cnc3c(=O)[nH]c(N)nc32)O[C@H]1n1ccc(N)nc1=O (stereo in doubt) [RG4326, ASGSCMAFCFUFUMUSGS]","Ex Vivo Liver Lysate (% Analyte), Mouse",[2],99.1%
same,viscosity,Viscosity,6 cP
same,parent compound remaining intact after the 24-hour incubation,[3],over 95%
same,Biochemical Fluorescence Binding Assay Relative Fluorescence Unit (Linear FC),[4],24.9 ± 3.1 Linear FC
same,Kidney-to-Liver Ratio PKD Mice,[5]; JCK mice,6.0
same,Kidney-to-Liver Ratio Wild Type Mice,[5]; wild type mice,9.8
same,In Vivo Acute Assay Kidney IFIT expression (Log2-FC),IFIT,0.34 (n = 1) Log2-FC
same,In Vivo Acute Assay Liver IFIT expression (Log2-FC),IFIT,0.21 ± 0.08 Log2-FC
same,"Mean luciferase fold derepression, miR-106b",miR-106b,17.7
